Measurements from US20240140986A1, “SYNTHETIC URSOLIC ACID DERIVATIVES AND METHODS OF USE THEREOF” (REATA PHARMACEUTICALS, INC., priority 2021, published 2024).
Like-named read-outs stand apart in the source and are kept apart here.

Tests used:
[1] = system: Nrf2 / ARE-dependent luciferase in AREc32 reporter cell line; experiment: AREc32 luciferase reporter activation (Nrf2 induction); format: cell-based, human; settings: for EC (2-fold): Homo sapiens, Arec32; for Relative Avg AREc32 EC2X Relative to RTA402 (fold): ratio to RTA402
Method in brief: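 EC2X is the concentration raising luminescence 2-fold above DMSO-treated cells, from a nonlinear-regression dose–response fit. Compounds (0.03–1000 nM) were applied for nineteen hours, starting one day after seeding 20,000 reporter cells per well. Luciferase was read with One-Glo reagent.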

[2] = system: IFNγ-induced NO production in RAW 264.7 cells; experiment: Nitric Oxide Suppression Assay (IFNγ-induced NO, Griess nitrite readout); format: cell-based, mouse; settings: for IC50: Mus musculus; for Avg NO IC50 Relative to RTA402 (fold): Table 2, ratio to RTA402
Method in brief: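 Nitrite, a surrogate for NO, was measured by Griess reagent (525 nm) and quantified from standards by linear regression, expressed as percent of DMSO plus IFNγ control to give IC50. RAW 264.7 cells had 2 h compound pretreatment, then 24 h with 20 ng/mL IFNγ; WST-1 checked viability.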

[3] = Table 2, concentration increasing luminescence 2-fold above vehicle, 19 h treatment, read-out: Avg AREc32 EC2X (nM) (Mean ± SD)
[4] = Table 3, ursolic acid derivatives, read-out: Avg ARE EC-2X (nM) (Mean ± SD)
[5] = RAW264.7, Table 2, RAW 264.7 cells, 2 h pretreatment, 20 ng/mL interferon gamma 24 h, read-out: Avg NO IC50 (nM) (Mean ± SD)
[6] = RAW264.7, Table 3, ursolic acid derivatives, read-out: Avg NO IC50 (nM) (Mean ± SD)
[7] = Table 3, oleanolic acid derivative analogs, read-out: Avg ARE EC-2X
[8] = RAW264.7, Table 3, oleanolic acid derivative analogs, read-out: Avg NO IC50

| IC50 [2, 5] | IC50 [2, 6] | Avg NO IC50 Relative to RTA402 (fold) [2] | SMILES | EC (2-fold) [1, 3] | EC (2-fold) [1, 4] | Relative Avg AREc32 EC2X Relative to RTA402 (fold) ([1]; Table 2) | EC (2-fold) [1, 7] | IC50 [2, 8] |
| --- | --- | --- | --- | --- | --- | --- | --- | --- |
| 8.19 ± 2 nM | 8.19 ± 2 nM | 2.70 ± 0.52 fold | C[C@@H]1[C@H]2[C@H]3C(=O)C=C4[C@@]5(C)C=C(C#N)C(=O)C(C)(C)[C@@H]5CC[C@@]4(C)[C@]3(C)CC[C@@]2(Cn2cncn2)CC[C@H]1C [Compound T47] | 7.08 ± 1.2 nM | 7.1 ± 1.2 nM | 0.573 ± 0.139 fold | – | – |
| 5.12 ± 1.21 nM | – | 1.33 ± 0.30 fold | COC(=O)NC[C@]12CC[C@@H](C)[C@H](C)[C@H]1[C@H]1C(=O)C=C3[C@@]4(C)C=C(C#N)C(=O)C(C)(C)[C@@H]4CC[C@@]3(C)[C@]1(C)CC2 [Compound T30] | 3.29 ± 0.61 nM | – | 0.27 ± 0.06 fold | – | – |
| 26.1 ± 7.6 nM | – | 6.55 ± 2.23 fold | C[C@@H]1[C@H]2[C@H]3C(=O)C=C4[C@@]5(C)C=C(C#N)C(=O)C(C)(C)[C@@H]5CC[C@@]4(C)[C@]3(C)CC[C@@]2(C(=O)NCC(F)F)CC[C@H]1C [Compound T87] | 23.6 ± 0.9 nM | – | 2.0 ± 0.1 fold | – | – |
| 28.5 ± 6.5 nM | – | 7.09 ± 1.54 fold | C[C@@H]1[C@H]2[C@H]3C(=O)C=C4[C@@]5(C)C=C(C#N)C(=O)C(C)(C)[C@@H]5CC[C@@]4(C)[C@]3(C)CC[C@@]2(C(=O)NC2CC2)CC[C@H]1C [Compound T86] | 24.8 ± 6.4 nM | – | 2.12 ± 0.16 fold | – | – |
| 25.8 ± 9.3 nM | 25.8 ± 9.3 nM | 9.8 ± 5.7 fold | C[C@@H]1[C@H]2[C@H]3C(=O)C=C4[C@@]5(C)C=C(C#N)C(=O)C(C)(C)[C@@H]5CC[C@@]4(C)[C@]3(C)CC[C@@]2(CNCCO)CC[C@H]1C [Compound T40] | 16.1 ± 1.5 nM | 16.1 ± 1.5 nM | 1.2 ± 0.2 fold | – | – |
| 6.42 ± 1.07 nM | 6.42 ± 1.07 nM | 1.84 ± 0.45 fold | C[C@@H]1[C@H]2[C@H]3C(=O)C=C4[C@@]5(C)C=C(C#N)C(=O)C(C)(C)[C@@H]5CC[C@@]4(C)[C@]3(C)CC[C@@]2(CN2NCCC2=O)CC[C@H]1C [Compound T54] | 4.92 ± 1.14 nM | 4.92 ± 1.14 nM | 0.403 ± 0.103 fold | – | – |
| 8.99 ± 1.84 nM | – | 3.35 ± 0.65 fold | C[C@@H]1[C@H]2[C@H]3C(=O)C=C4[C@@]5(C)C=C(C#N)C(=O)C(C)(C)[C@@H]5CC[C@@]4(C)[C@]3(C)CC[C@@]2(Cn2cnnn2)CC[C@H]1C [Compound T52] | 8.74 ± 0.51 nM | – | 0.654 ± 0.079 fold | – | – |
| 14.8 ± 4.7 nM | – | 5.92 ± 0.69 fold | Cc1noc([C@]23CC[C@@H](C)[C@H](C)[C@H]2[C@H]2C(=O)C=C4[C@@]5(C)C6O[C@@]6(C#N)C(=O)C(C)(C)[C@@H]5CC[C@@]4(C)[C@]2(C)CC3)n1 (stereo partly shown) [Compound T99] | 10.4 ± 0.8 nM | – | 0.864 ± 0.046 fold | – | – |
| 3.58 ± 2.16 nM | – | 0.94 ± 0.14 fold | CC(=O)NC[C@]12CC[C@@H](C)[C@H](C)[C@H]1[C@H]1C(=O)C=C3[C@@]4(C)C=C(C#N)C(=O)C(C)(C)[C@@H]4CC[C@@]3(C)[C@]1(C)CC2 [Compound T22] | 2.99 ± 1.62 nM | – | 0.244 ± 0.080 fold | – | – |
| 5.41 ± 2.52 nM | 5.41 ± 2.52 nM | 1.79 ± 0.77 fold | C[C@@H]1[C@H]2[C@H]3C(=O)C=C4[C@@]5(C)C=C(C#N)C(=O)C(C)(C)[C@@H]5CC[C@@]4(C)[C@]3(C)CC[C@@]2(CN2CCOC2=O)CC[C@H]1C [Compound T41] | 4.73 ± 2.12 nM | 4.73 ± 2.12 nM | 0.354 ± 0.155 fold | – | – |
| 15 ± 5.8 nM | – | 5.83 ± 1.26 fold | C[C@@H]1[C@H]2[C@H]3C(=O)C=C4[C@@]5(C)C=C(C#N)C(=O)C(C)(C)[C@@H]5CC[C@@]4(C)[C@]3(C)CC[C@@]2(NC(=O)C(C)(F)F)CC[C@H]1C [Compound T17] | 22.9 ± 2.6 nM | – | 1.92 ± 0.74 fold | – | – |
| 12.5 ± 7.3 nM | – | 4.11 ± 0.26 fold | C[C@@H]1[C@H]2[C@H]3C(=O)C=C4[C@@]5(C)C=C(C#N)C(=O)C(C)(C)[C@@H]5CC[C@@]4(C)[C@]3(C)CC[C@@]2(n2cnnn2)CC[C@H]1C [Compound T61] | 7.53 ± 2.25 nM | – | 0.601 ± 0.122 fold | – | – |
| 2.87 ± 1.67 nM | 2.87 ± 1.67 nM | 0.967 ± 0.21 fold | [2H]C([2H])([2H])C(=O)NC[C@]12CC[C@@H](C)[C@H](C)[C@H]1[C@H]1C(=O)C=C3[C@@]4(C)C=C(C#N)C(=O)C(C)(C)[C@@H]4CC[C@@]3(C)[C@]1(C)CC2 [Compound T24] | 1.49 ± 0.31 nM | 1.49 ± 0.31 nM | 0.126 ± 0.026 fold | – | – |

Continued, compound first:

| SMILES | IC50 [2, 5] | IC50 [2, 6] | Avg NO IC50 Relative to RTA402 (fold) [2] | EC (2-fold) [1, 3] | EC (2-fold) [1, 4] | Relative Avg AREc32 EC2X Relative to RTA402 (fold) ([1]; Table 2) | EC (2-fold) [1, 7] | IC50 [2, 8] |
| --- | --- | --- | --- | --- | --- | --- | --- | --- |
| CCc1noc([C@]23CC[C@@H](C)[C@H](C)[C@H]2[C@H]2C(=O)C=C4[C@@]5(C)C=C(C#N)C(=O)C(C)(C)[C@@H]5CC[C@@]4(C)[C@]2(C)CC3)n1 [Compound T4] | 14.8 ± 2.9 nM | 14.8 ± 2.9 nM | 7.06 ± 0.83 fold | 19.9 ± 0.2 nM | 19.9 ± 0.2 nM | 1.93 ± 0.23 fold | – | – |
| C[C@@H]1[C@H]2[C@H]3C(=O)C=C4[C@@]5(C)C=C(C#N)C(=O)C(C)(C)[C@@H]5CC[C@@]4(C)[C@]3(C)CC[C@@]2(N2CCOC2=O)CC[C@H]1C [CC59, reference compound] | – | – | – | – | – | – | 23.6 nM | 2.2 nM |
| CC1(C)CC[C@]2(CN3CCCC3=O)CC[C@]3(C)[C@H](C(=O)C=C4[C@@]5(C)C=C(C#N)C(=O)C(C)(C)[C@@H]5CC[C@]43C)[C@@H]2C1 [CC15, reference compound] | – | – | – | – | – | – | 6.66 nM | 1.1 nM |
| CC1(C)CC[C@]2(Cn3ccnc3)CC[C@]3(C)[C@H](C(=O)C=C4[C@@]5(C)C=C(C#N)C(=O)C(C)(C)[C@@H]5CC[C@]43C)[C@@H]2C1 [CC51, reference compound] | – | – | – | – | – | – | 18 nM | 3.9 nM |
| C[C@@H]1[C@H]2[C@H]3C(=O)C=C4[C@@]5(C)C=C(C#N)C(=O)C(C)(C)[C@@H]5CC[C@@]4(C)[C@]3(C)CC[C@@]2(c2nc(C3CC3)no2)CC[C@H]1C [Compound T2] | 21.3 ± 7.4 nM | 21.3 ± 7.4 nM | 9.86 ± 0.83 fold | 35 ± 2 nM | 35 ± 2 nM | 3.41 ± 0.20 fold | – | – |
| C[C@@H]1[C@H]2[C@H]3C(=O)C=C4[C@@]5(C)C=C(C#N)C(=O)C(C)(C)[C@@H]5CC[C@@]4(C)[C@]3(C)CC[C@@]2(CN2CCCC2=O)CC[C@H]1C [Compound T15] | 4.2 ± 2.4 nM | 4.2 ± 2.4 nM | 1.99 ± 0.20 fold | 5.21 ± 1.11 nM | 5.21 ± 1.11 nM | 0.447 ± 0.085 fold | – | – |
| C[C@@H]1[C@H]2[C@H]3C(=O)C=C4[C@@]5(C)C=C(C#N)C(=O)C(C)(C)[C@@H]5CC[C@@]4(C)[C@]3(C)CC[C@@]2(CN2CCC2=O)CC[C@H]1C [Compound T14] | 2.4 ± 1.2 nM | 2.4 ± 1.2 nM | 1.27 ± 0.31 fold | 3.91 ± 0.52 nM | 3.91 ± 0.52 nM | 0.349 ± 0.018 fold | – | – |
| COCc1noc([C@]23CC[C@@H](C)[C@H](C)[C@H]2[C@H]2C(=O)C=C4[C@@]5(C)C=C(C#N)C(=O)C(C)(C)[C@@H]5CC[C@@]4(C)[C@]2(C)CC3)n1 [Compound T3] | 5.1 ± 1.02 nM | – | 2.51 ± 0.94 fold | 6.16 ± 1.02 nM | – | 0.598 ± 0.137 fold | – | – |
| C[C@@H]1[C@H]2[C@H]3C(=O)C=C4[C@@]5(C)C=C(C#N)C(=O)C(C)(C)[C@@H]5CC[C@@]4(C)[C@]3(C)CC[C@@]2(c2nc(CF)no2)CC[C@H]1C [Compound T11] | 4.33 ± 1.45 nM | – | 2.10 ± 0.49 fold | 8.74 ± 2.61 nM | – | 0.685 ± 0.050 fold | – | – |
| C[C@@H]1[C@H]2[C@H]3C(=O)C=C4[C@@]5(C)C=C(C#N)C(=O)C(C)(C)[C@@H]5CC[C@@]4(C)[C@]3(C)CC[C@@]2(c2nc(CCO)no2)CC[C@H]1C [Compound T5] | 1.81 ± 0.331 nM | – | 1.24 ± 0.13 fold | 2.4 ± 0.75 nM | – | 0.224 ± 0.196 fold | – | – |
| CC1(C)CC[C@]2(CO)CC[C@]3(C)[C@H](C(=O)C=C4[C@@]5(C)C=C(C#N)C(=O)C(C)(C)[C@@H]5CC[C@]43C)[C@@H]2C1 [CC13, reference compound] | – | – | – | – | – | – | 8.82 nM | 0.5 nM |
